Non-standard residues stand in square brackets, D forms with d. Residues, ends and D or L forms follow the SMILES beside them. No end group written: not given here. *: point of attachment. Phe(F5) = N[C@@H](Cc1c(F)c(F)c(F)c(F)c1F)C(=O)O; NMeY = CN[C@@H](Cc1ccc(O)cc1)C(=O)O; Agmatine = N=C(N)NCCCCN*; Nle = CCCC[C@H](N)C(=O)O; Orn = NCCC[C@H](N)C(=O)O; Abu = CC[C@H](N)C(=O)O; Ava = NCCCCC(=O)O; GABA = NCCCC(=O)O
Tests used:
[1] = tested on: GH level; assay: In vivo endocrine activity (GH release), subcutaneous administration; settings: rat; for GH releasing potency relative to JI-38 (=1): s.c. injection
Description: Subcutaneous Administration. Adult male rats were used and anesthetized with pentobarbital (6 mg/100 g, b.w.), by i.p. injection. […] Blood samples were taken from the jugular vein 5, 15 and/or 30 minutes after the injection. The blood samples were centrifuged, plasma was removed and the GH level was measured by ELISA. The results are summarized in terms of potency in Table 9.

[2] = target: T1, GHRH receptor (human pituitary membrane homogenates) (Homo sapiens, UniProt Q02643); assay: GHRH receptor binding, ligand competition with 125I-labeled JV-1-42 (Table 7); set-up: Normal human pituitaries were purchased from the National Hormone and Peptide Program; tissue National Hormone and Peptide Program (A. F. Parlow, Harbor-UCLA Medical Center, Torrance, Calif.); host or cells: normal human pituitary, membrane fraction / homogenate; settings: JI-38 = 1
T1 sequence (Q02643 23-423): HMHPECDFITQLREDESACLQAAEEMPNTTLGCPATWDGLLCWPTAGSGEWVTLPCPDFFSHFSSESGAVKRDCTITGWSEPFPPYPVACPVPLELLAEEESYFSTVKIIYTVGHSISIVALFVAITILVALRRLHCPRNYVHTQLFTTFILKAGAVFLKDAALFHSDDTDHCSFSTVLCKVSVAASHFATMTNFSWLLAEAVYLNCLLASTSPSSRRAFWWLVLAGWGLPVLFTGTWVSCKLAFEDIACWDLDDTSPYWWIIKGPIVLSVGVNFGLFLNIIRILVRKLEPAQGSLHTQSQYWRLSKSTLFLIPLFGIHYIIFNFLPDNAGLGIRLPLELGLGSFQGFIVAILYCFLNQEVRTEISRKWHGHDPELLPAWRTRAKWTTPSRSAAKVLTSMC

| Compound | Relative affinitiy (Binding potency) vs JI-38 [2] | Stimulation of growth hormone levels after s.c. administration (comparison in words) [1] | GH releasing potency relative to JI-38 (=1) ([1]; 15 min after) | GH releasing potency relative to JI-38 (=1) ([1]; 30 min after) | GH releasing potency relative to JI-38 (=1) ([1]; 5 min after) |
| --- | --- | --- | --- | --- | --- |
| [N—Me-Tyr^1, Gln^8, Orn^12, Abu^15, Orn^21, Nle^27, Agm^29]hGHRH(1-29) ([NMeY]ADAIFTQSYR[Orn]VL[Abu]QLSAR[Orn]LLQDI[Nle]S[Agmatine]) [Peptide P-20373] |  |  | 0.23 | 0.88 |  |
| CCCC[C@H](NC(=O)[C@@H](NC(=O)[C@H](CC(=O)O)NC(=O)[C@H](CCC(N)=O)NC(=O)[C@H](CC(C)C)NC(=O)[C@H](CC(C)C)NC(=O)[C@H](CCCN)NC(=O)[C@H](CCCNC(=N)N)NC(=O)[C@H](C)NC(=O)[C@H](CO)NC(=O)[C@H](CC(C)C)NC(=O)[C@H](CCC(N)=O)NC(=O)[C@H](CC)NC(=O)[C@H](CC(C)C)NC(=O)[C@@H](NC(=O)[C@H](CCCN)NC(=O)[C@H](CCCNC(=N)N)NC(=O)[C@H](Cc1ccc(O)cc1)NC(=O)[C@H](CO)NC(=O)[C@H](CCC(N)=O)NC(=O)[C@@H](NC(=O)[C@H](Cc1ccccc1)NC(=O)[C@@H](NC(=O)[C@H](C)NC(=O)[C@H](CC(=O)O)NC(=O)[C@@H](C)NC(=O)[C@H](Cc1ccc(O)cc1)NC)[C@@H](C)CC)[C@@H](C)O)C(C)C)[C@@H](C)CC)C(=O)N[C@@H](CC(=O)O)C(=O)N[C@@H](CCCNC(=N)N)C(=O)NCCCCC(N)=O [Peptide P-22325, [N—Me-Tyr^1, Gln^8, Orn^12, Abu^15, Orn^21, Nle^27, Asp^28, Apa^30]hGHRH (1-30)NH2] (H-[NMeY][dA]DAIFTQSYR[Orn]VL[Abu]QLSAR[Orn]LLQDI[Nle]DR[Ava]-NH2) | 1.14 |  | 0.68 | 1.03 | 0.33 |

Further lines, with some results ahead:

| Relative affinitiy (Binding potency) vs JI-38 [2] | Compound | Stimulation of growth hormone levels after s.c. administration (comparison in words) [1] | GH releasing potency relative to JI-38 (=1) ([1]; 15 min after) | GH releasing potency relative to JI-38 (=1) ([1]; 30 min after) | GH releasing potency relative to JI-38 (=1) ([1]; 5 min after) |
| --- | --- | --- | --- | --- | --- |
| 4.07 | CCCC[C@H](NC(=O)[C@@H](NC(=O)[C@H](CC(=O)O)NC(=O)[C@H](CCC(N)=O)NC(=O)[C@H](CC(C)C)NC(=O)[C@H](CC(C)C)NC(=O)[C@H](CCCN)NC(=O)[C@H](CCCNC(=N)N)NC(=O)[C@H](C)NC(=O)[C@H](CO)NC(=O)[C@H](CC(C)C)NC(=O)[C@H](CCC(N)=O)NC(=O)[C@H](CC)NC(=O)[C@H](CC(C)C)NC(=O)[C@@H](NC(=O)[C@H](CCCN)NC(=O)[C@H](CCCNC(=N)N)NC(=O)[C@H](Cc1ccc(O)cc1)NC(=O)[C@H](CO)NC(=O)[C@H](CC(N)=O)NC(=O)[C@@H](NC(=O)[C@H](Cc1ccccc1)NC(=O)[C@@H](NC(=O)[C@H](C)NC(=O)[C@H](CC(=O)O)NC(=O)[C@@H](C)NC(=O)[C@H](Cc1ccc(O)cc1)NC)[C@@H](C)CC)[C@@H](C)O)C(C)C)[C@@H](C)CC)C(=O)N[C@@H](CO)C(=O)N[C@@H](CCCNC(=N)N)C(=O)NCCCC(N)=O [Peptide P-25501, [N—Me-Tyr^1, D-Ala^2, Orn^12, Abu^15, Orn^21, Nle^27, Gab^30]hGHRH(1-30)NH2] (H-[NMeY][dA]DAIFTNSYR[Orn]VL[Abu]QLSAR[Orn]LLQDI[Nle]SR[GABA]-NH2) | stimulated greater growth hormone levels than hGHRH or JI-38 |  |  |  |
| 6.12 | CCCC[C@H](NC(=O)[C@@H](NC(=O)[C@H](CC(=O)O)NC(=O)[C@H](CCC(N)=O)NC(=O)[C@H](CC(C)C)NC(=O)[C@H](CC(C)C)NC(=O)[C@H](CCCN)NC(=O)[C@H](CCCNC(=N)N)NC(=O)[C@H](C)NC(=O)[C@H](CO)NC(=O)[C@H](CC(C)C)NC(=O)[C@H](CCC(N)=O)NC(=O)[C@H](CC)NC(=O)[C@H](CC(C)C)NC(=O)[C@@H](NC(=O)[C@H](CCCN)NC(=O)[C@H](CCCNC(=N)N)NC(=O)[C@H](Cc1ccc(O)cc1)NC(=O)[C@H](CO)NC(=O)[C@H](CCC(N)=O)NC(=O)[C@@H](NC(=O)[C@H](Cc1ccccc1)NC(=O)[C@@H](NC(=O)[C@H](C)NC(=O)[C@H](CC(=O)O)NC(=O)[C@@H](C)NC(=O)[C@H](Cc1ccc(O)cc1)NC)[C@@H](C)CC)[C@@H](C)O)C(C)C)[C@@H](C)CC)C(=O)N[C@@H](CC(=O)O)C(=O)N[C@@H](CCCNC(=N)N)C(=O)NCCCCC(N)=O [Peptide P-22326, [N—Me-Tyr^1, D-Ala^2, Gln^8, Orn^12, Abu^15, Orn^21, Nle^27, Asp^28, Apa^30]hGHRH(1-30)NH2] (H-[NMeY][dA]DAIFTQSYR[Orn]VL[Abu]QLSAR[Orn]LLQDI[Nle]DR[Ava]-NH2) | stimulated greater growth hormone levels than hGHRH or JI-38 |  |  |  |
| 4.10 | CCCC[C@H](NC(=O)[C@@H](NC(=O)[C@H](CC(=O)O)NC(=O)[C@H](CCC(N)=O)NC(=O)[C@H](CC(C)C)NC(=O)[C@H](CC(C)C)NC(=O)[C@H](CCCN)NC(=O)[C@H](CCCNC(=N)N)NC(=O)[C@H](C)NC(=O)[C@H](CO)NC(=O)[C@H](CC(C)C)NC(=O)[C@H](CCC(N)=O)NC(=O)[C@H](CC)NC(=O)[C@H](CC(C)C)NC(=O)[C@@H](NC(=O)[C@H](CCCN)NC(=O)[C@H](CCCNC(=N)N)NC(=O)[C@H](Cc1ccc(O)cc1)NC(=O)[C@H](CO)NC(=O)[C@H](CC(N)=O)NC(=O)[C@@H](NC(=O)[C@H](Cc1ccccc1)NC(=O)[C@@H](NC(=O)[C@H](C)NC(=O)[C@H](CC(=O)O)NC(=O)[C@@H](C)NC(=O)[C@H](Cc1ccc(O)cc1)NC)[C@@H](C)CC)[C@@H](C)O)C(C)C)[C@@H](C)CC)C(=O)N[C@@H](CC(=O)O)C(=O)N[C@@H](CCCNC(=N)N)C(=O)NC [Peptide P-27409, [N—Me-Tyr^1, D-Ala^2, Orn^12, Abu^15, Orn^21, Nle^27, Asp^28]hGHRH(1-29)NH—CH3] (H-[NMeY][dA]DAIFTNSYR[Orn]VL[Abu]QLSAR[Orn]LLQDI[Nle]DR-NHMe) | stimulated greater growth hormone levels than hGHRH or JI-38 |  |  |  |
| 5.00 | CCCC[C@H](NC(=O)[C@@H](NC(=O)[C@H](CC(=O)O)NC(=O)[C@H](CCC(N)=O)NC(=O)[C@H](CC(C)C)NC(=O)[C@H](CC(C)C)NC(=O)[C@H](CCCN)NC(=O)[C@H](CCCNC(=N)N)NC(=O)[C@H](C)NC(=O)[C@H](CO)NC(=O)[C@H](CC(C)C)NC(=O)[C@H](CCC(N)=O)NC(=O)[C@H](CC)NC(=O)[C@H](CC(C)C)NC(=O)[C@@H](NC(=O)[C@H](CCCN)NC(=O)[C@H](CCCNC(=N)N)NC(=O)[C@H](Cc1ccc(O)cc1)NC(=O)[C@H](CO)NC(=O)[C@H](CC(N)=O)NC(=O)[C@@H](NC(=O)[C@H](Cc1c(F)c(F)c(F)c(F)c1F)NC(=O)[C@@H](NC(=O)[C@H](C)NC(=O)[C@H](CC(=O)O)NC(=O)[C@@H](C)NC(=O)[C@H](Cc1ccc(O)cc1)NC)[C@@H](C)CC)[C@@H](C)O)C(C)C)[C@@H](C)CC)C(=O)N[C@@H](CC(=O)O)C(=O)N[C@@H](CCCNC(=N)N)C(=O)NC [Peptide P-27404, [N—Me-Tyr^1, D-Ala^2, Fpa5^6, Orn^12, Abu^15, Orn^21, Nle^27, Asp^28]hGHRH(1-29)NH—CH3] (H-[NMeY][dA]DAI[Phe(F5)]TNSYR[Orn]VL[Abu]QLSAR[Orn]LLQDI[Nle]DR-NHMe) | stimulated greater growth hormone levels than hGHRH or JI-38 | 2.07 | 1.47 |  |
